Measurements from publication PMC9487510, “A Novel Oral GyrB/ParE Dual Binding Inhibitor Effective against Multidrug-Resistant Neisseria gonorrhoeae and Other High-Threat Pathogens” (Antimicrobial Agents and Chemotherapy, 2022).
≈ marks a conversion by molar mass, not a printed value. Where two headings read alike, the source gives them in different places.

What was measured:
[1] = Liver microsome stability, mouse; format: in vitro ADME; settings: male, CD-1, mouse, liver microsomes, pH 7.4
Protocol: Liver microsome stability assays were performed by BioDuro Inc. Human and mouse (CD-1 male) liver microsomes were used. […] Next, 50 μL of reaction buffer was added to solution and mixed via pipetting up and down 6 times. At each time point of 0, 30, and 60 min, an aliquot of 20 μL was removed from each tube. Liver microsomes (LM) working solution was prepared in 0.05 M phosphate reaction buffer (pH = 7.4) to a final concentration of 1.27 mg/mL. NADPH solution was prepared in 0.05 M phosphate buffer to afford a 5 mM buffer solution. […] After vortexing and incubating for 5 min (37°C), 50 μL of NADPH solution was added and mixed via pipetting. At each time point of 0, 5, 15, 30, and 60 min, an aliquot of 20 μL was removed from each tube. Next, 250 μL of quenching solution was aliquoted to quench the reaction, which was then vortexed for 1 min and placed on ice for 40 min. After centrifugation at 4,000 × g for 15 min, 100 μL of supernatant was transferred using a multichannel pipette to 0.65-mL tubes. Samples were diluted with MeOH: H2O (1:1) as necessary. Samples were analyzed by high-pressure liquid chromatography coupled to tandem mass spectrometry (LC/MS/MS) performed on a Sciex Applied Biosystems Qtrap 4000 triple-quadrupole mass spectrometer coupled to a Shimadzu HPLC system to quantify the remaining compound. Data were processed using Analyst software (version 1.4.2; Applied Biosystems Sciex). […] Metabolite identification on the microsomal extracts was performed using a Q-Exactive HRMS coupled with an Ultimate 3000 HPLC system and a Kinetix C18 2.1 × 50-mm 2.6-μm HPLC column.

C. difficile = assay: MIC, toxigenic C. difficile panel (CLSI); format: cell-based, Clostridioides difficile
Serum protein binding = format: in vitro ADME
[2] = Kinetic aqueous solubility; format: physicochemical; settings: aqueous medium (not further specified)
B. anthracis = assay: microbe, parasite or virus in culture; format: cell-based; settings: for MIC: Bacillus anthracis
MRSE = assay: MIC, in vitro susceptibility testing (CLSI); format: cell-based, Staphylococcus epidermidis; settings: for MIC: Staphylococcus epidermidis, MRSE, read-out: MIC

**Q.** Which results are given for CNc1cc(F)cc2c1[nH]c1nc(Oc3cnc(C)nc3)nc(N3CCC4(CC3)CO[C@@H](CO)C4)c12 [JSF-2414]?
**A.** microsomal CLint at 1 μM ([1]; read-out: MLM Clint): 11.9 µL/min/mg; half-life at 1 μM ([1]; read-out: MLM t1/2): 58.2 min; MIC (C. difficile; Clostridioides difficile, BAA1805, strain BAA-1805, read-out: MIC): 31 ng/mL (≈ 62.8 nM); MIC range (C. difficile; N = 9, toxigenic panel): 7.8 to 63 ng/mL; fraction unbound (Serum protein binding): 0.012; solubility kinetic [2]: 0.576 µM (≈ 0.284 µg/mL); MIC (B. anthracis; strain Ames): 49 ng/mL (≈ 99.3 nM); MIC (B. anthracis; strain Vollum V1B): 98 ng/mL (≈ 199 nM); MIC range (B. anthracis; N = 2): 49 to 98 ng/mL; MIC range (MRSE; N = 4): 2 to 4 ng/mL; MIC (MRSE; strain 9 25): 4 ng/mL (≈ 8.1 nM); MIC (MRSE; strain 9 26): 2 ng/mL (≈ 4.05 nM); MIC (MRSE; strain 9 27): 2 ng/mL (≈ 4.05 nM); MIC (MRSE; strain 9 28): 4 ng/mL (≈ 8.1 nM)
